# Measurements as given in patent US5478726A, “Mycobacterial recombinants and peptides” (priority 1992, dated 1995).
# Key:
# T cell clone A7JM = conditions: A7JM against macrophages pulsed with the antigen; 7 days
# T cell clone K8AH = conditions: K8AH against macrophages pulsed with the antigen; 7 days
# [1] = system: serum from human patients known to be infected with M. tuberculosis; type: binding; conditions: Western blot; preliminary studies
molecule,measurement,setting,value
"CC[C@H](C)[C@H](NC(=O)[C@H](Cc1ccc(O)cc1)NC(=O)[C@@H]1CCCN1C(=O)[C@H](CC(=O)O)NC(=O)[C@H](CCC(=O)O)NC(=O)[C@H](CC(C)C)NC(=O)[C@@H](NC(=O)[C@H](C)N)C(C)C)C(=O)N[C@@H](CC(C)C)C(=O)N[C@@H](CC(C)C)C(=O)N[C@H](C(=O)N[C@@H](CO)C(=O)N[C@@H](CO)C(=O)N[C@@H](CCCCN)C(=O)N[C@H](C(=O)O)C(C)C)C(C)C [Peptide 22, A V L E D P Y I L L V S S K V]",Cytotoxicity,T cell clone A7JM,82.7 ± 10 percentages
"CC[C@H](C)[C@H](NC(=O)[C@@H](NC(=O)[C@H](CCCCN)NC(=O)[C@H](CCC(=O)O)NC(=O)[C@H](CC(C)C)NC(=O)[C@H](CC(C)C)NC(=O)[C@@H]1CCCN1C(=O)[C@H](CC(C)C)NC(=O)[C@@H](N)CC(C)C)C(C)C)C(=O)NCC(=O)N[C@@H](C)C(=O)NCC(=O)N[C@@H](CCCCN)C(=O)N1CCC[C@H]1C(=O)N[C@@H](CC(C)C)C(=O)O [Peptide 24, L L P L L E K V I G A G K P L]",Cytotoxicity,T cell clone K8AH,86.5 ± 0.6 percentages
purified recombinant 65KD protein: purified recombinant 65KD (540 amino acid residue) protein of M. tuberculosis,Immunoreaction with antisera from infected patients,[1],immunoreacted
